{
  "source": "patent US20260355147A1",
  "about": "“COMPOSITIONS COMPRISING TRIGONELLINE AND A UROLITHIN” (Amazentis SA, priority 2023, published 2026)",
  "key": {"C2C12 myotubes": {"test_system": "C2C12 myotubes", "experiment": "Mitochondrial respiration in C2C12 myotubes (Seahorse XF96, fatty acid oxidation analysis)", "type": "cell-based, Mouse", "details": "50 uM, 24 hours (FIG. 1)", "experimental": "A combined treatment of urolithin A and trigonelline was performed and mitochondrial respiration was measured in rodent skeletal muscle cells.\nFatty acid oxidation analysis on C2C12 myotubes was measured with a Seahorse XF96 extracellular flux analyzer. C2C12s were seeded at 8,000 cells/well in an XF96 cell culture microplate. Once cells reached confluence, they were differentiated with DMEM (Gibco, 31966047) supplemented with 2% Horse serum, 1% PenStrep and 1% Hepes for 5 days. Cells were treated with UA 50 uM and Trigonelline 50 uM (Sigma, T5509) for 24 hours in substrate-limited media (Gibco, A1443001) supplemented with 0.5 mM glucose, 1 mM glutamine, 1% Oleic acid and 0.5 mM L-Carnitine. Maximal respiration was monitored by injection of 3 μM FCCP in the cartridge. Prior to the assay, cells were incubated in a Fatty acid oxidation medium (111 mM NaCl, 4.7 mM KCl, 1.25 mM CaCl2, 2 mM MgSO4, 1.2 mM NaH2PO4, 5 mM L-Carnitine, 5 mM Hepes, 2.5 mM Glucose) for 20 min, solution must be adjusted to pH 7.4 at 37 °C."}, "[1]": {"test_system": "HSMM human primary skeletal muscle myoblasts", "experiment": "Mitochondrial respiration (oxygen consumption rate) in human primary skeletal muscle myoblasts HSMM (Seahorse XF96)", "type": "cell-based", "details": "24 hours, normalized over cellular DNA content", "experimental": "Cells were treated as indicated with Urolithin A (UA) 6.25 uM and trigonelline (Trig) 500 uM, alone or in combination. DMSO 0.1% was used as control. Data are expressed as mean+/−SD. One-Way ANOVA, * p.val.<0.05.\nA combined treatment of urolithin A and trigonelline was performed and mitochondrial respiration was measured in human primary skeletal muscle cells.\nMitochondrial respiration was measured as oxygen consumption rate on HSMM (LZ-CC-2580, Lonza), human primary skeletal muscle myoblasts was measured with a Seahorse XF96 extracellular flux analyzer. HSMMs were seeded at 3,500 cells/well in an XF96 cell culture microplate and cultured at 37 °C in a humidified atmosphere of 5% C02 in SKM-M Growth medium (AMSbio). […] Oxygen consumption rate was measured in Krebs Cycle medium (135 mM NaCl, KCL 3.6 mM, 0.5 mM NaH2PO4, 0.5 mM MgSO4, 10 mM HEPES, 5 mM NaHCO3) supplemented with 10 mM Glucose, 10 mM pyruvate and 2 mM Glutamine. Maximal respiration was monitored by injection of 6 μM FCCP in the cartridge. To normalize for differences in cell number across well, cellular DNA content was measured in the same microplate using the CyQuant NF kit (Thermofisher, C35006), following the manufacturer's instructions. Normalized mitochondrial respiration was then calculated as ratio between oxygen consumption rate and DNA content and expressed as fold change over the DMSO of the basal condition."}, "C2C12 muscle cell line": {"test_system": "C2C12 muscle cell line", "details": "Ryu, D. et al. Nature Medicine 2016, 22, 879; cited from earlier work"}, "C. elegans": {"test_system": "C. elegans", "details": "in vivo; cited from earlier work"}, "muscle mass": {"test_system": "muscle mass", "details": "in vivo; cited from earlier work"}, "skeletal muscle cells": {"test_system": "skeletal muscle cells", "details": "cited from earlier work"}, "human cells": {"test_system": "human cells", "details": "at this dose (50 uM); FIG. 1 of US 2022/0241259 A1; cited from earlier work"}, "HSMM myotubes": {"test_system": "HSMM myotubes", "details": "only at 1000 uM, 72 h, with simultaneous blocking of NAD+ salvage pathway with FK866; cited from earlier work"}, "rodent tissues": {"test_system": "rodent tissues", "details": "in vivo; cited from earlier work"}},
  "data": [
    {"smiles": "O=c1oc2cc(O)ccc2c2ccc(O)cc12", "note": "[Urolithin A, urolithin A]", "values": [
      {"measurement": "mitochondrial respiration", "setting": "C2C12 myotubes; urolithin A alone", "result": "induced mitochondrial respiration"},
      {"measurement": "mitochondrial respiration", "setting": "[1]; urolithin A alone, 6.25 uM", "result": "induced mitochondrial respiration"},
      {"measurement": "mitochondrial respiration", "setting": "C2C12 muscle cell line", "result": "induced mitochondrial respiration as shown previously in the C2C12 muscle cell line"}
    ]},
    {"smiles": "C[n+]1cccc(C(=O)[O-])c1", "note": "[trigonelline]", "values": [
      {"measurement": "lifespan in C. elegans models", "setting": "C. elegans", "result": "increase lifespan"},
      {"measurement": "muscle mass in rodents", "setting": "muscle mass", "result": "induce muscle mass"},
      {"measurement": "NAD^+ levels in skeletal muscle cells", "setting": "skeletal muscle cells", "result": "help to increase NAD^+ levels"},
      {"measurement": "mitochondrial respiration", "setting": "C2C12 myotubes; trigonelline alone", "result": "Mitochondrial respiration was also increased"},
      {"measurement": "biological effect on NAD production in human cells", "setting": "human cells", "result": "not shown to have a significant biological effect on NAD production"},
      {"measurement": "mitochondrial respiration in HSMM myotubes", "setting": "HSMM myotubes", "result": "improvement in mitochondrial respiration"},
      {"measurement": "mitochondrial respiration", "setting": "[1]; trigonelline alone, 500 uM", "result": "Mitochondrial respiration was also increased"},
      {"measurement": "NAD^+ levels in rodent tissues", "setting": "rodent tissues", "result": "help to increase NAD^+ levels"}
    ]}
  ]
}
